From a melting point compilation (Tetko et al.; mined from patent text by program, amines drawn as free bases though some values may be those of a salt) come the findings set out here.

For `COc1ccc2c(c1)CC[C@@H](Br)[C@@H]2O` (relative stereo), the melting point was 80 to 82 °C.

In turn, `CCCn1nc(C(C)C)c(C(=O)OCc2cccc(C(=O)c3ccccc3)c2)c1Cc1ccc(-c2ccccc2S(N)(=O)=O)c(F)c1` came in with a melting point of 46 to 50 °C.

Turning to `Clc1ccccc1CSc1nc2cccc3c2n1CCC3`, the melting point lay within 157 to 159 °C.

Turning to `CN(C)c1ccc(C=NO)c([N+](=O)[O-])c1`, the melting point was in the range of 140 to 143 °C.

In the case of `CCOC(=O)COCC1CCCN(C(=O)c2cnc(NC(=N)N)s2)C1` (racemic), the melting point was found to be 156 °C.

Consider `CNC(C)C/C=C/c1cnc(N)c(C)c1` (stereo not drawn), for which the melting point lay within 78 to 81 °C.

In turn, `Cc1noc(C)c1-c1ncccc1OC1SCC(O)C(O)C1O` (stereo not drawn) displayed a melting point of 112 °C.

`O=C(NC(=O)c1c(Cl)cccc1Cl)Nc1cnc(-c2ccc(Cl)cc2)cn1` yielded a melting point of 245 to 249 °C.

`CC(CO)c1ccc(-c2ccccc2F)cc1` (stereo not drawn) gave a melting point of 73 to 74 °C.

As for `CCCCCCC(=N)NC(=S)Nc1ccc(Cl)c([N+](=O)[O-])c1`, the melting point fell in the range of 92 to 94 °C.

`CS(=O)(=O)c1ccc(-n2cc(-c3ccc(Cl)cc3)nc2-c2ccc(Cl)cc2)cc1` gave a melting point of 169 to 171 °C.

In turn, `CC1(C)C=Cc2cc(C(=O)NCCN3C(=O)c4ccccc4C3=O)ccc2O1` showed a melting point of 183 to 185 °C.

`COc1ccc2c(c1)cc(CO)n2C` showed a melting point of 158 °C.

In turn, `CCOC(=O)OC1=C(c2ccccc2)C(CCC(=O)O)OC1=O` (stereo not drawn) registered a melting point of 139 to 141 °C.

In turn, `Cn1cc(C2=C(c3ccsc3)C(=O)NC2=O)c2ccccc21` yielded a melting point of 211 to 212 °C.

For `Clc1cnc2cc(Cl)c(Cl)cc2n1`, the melting point was found to be 137 °C.

The compound `CC(C)(C(=O)O)c1ccc(CCN2CCC(c3nc4ccccc4n3CCO)CC2)cc1` gave a melting point of 218 °C.

The compound `CS(=O)(=O)c1ccc(-c2cc(CBr)nn2CC2CCCCC2)cc1` showed a melting point of 141 to 143 °C.

`O=C(O)CCCCCCCCC=Cc1ccco1`: the melting point was in the range of 45 to 46 °C.

`OCCNc1ccnc2cc3c(cc12)OCO3` gave a melting point of 233 to 234 °C.

In turn, `COc1cccc(N2CCN(S(=O)(=O)c3cccc(/C=C/C(=O)NO)c3)CC2)c1` displayed a melting point of 196 °C.

In the case of `CC(N)=C(C(=O)OC(C)(C)C)C(=S)NC(=O)c1ccccc1`, the melting point is 107 to 110 °C.

With `CC(C)c1ccc(N(Cc2ccc(N(C)C)cc2)C(=O)C2CCCc3cc(OCCN(C)C)ccc32)cc1` (stereo not drawn), the melting point came to 133 °C.

For `CC(=O)C1=Cc2cc(Cl)cc(C)c2OC1`, the melting point lay within 78 to 79 °C.

In turn, `CCOc1cc(-c2cc(C(F)(F)F)n3ncc(C(=O)Nc4nc(C)c(S(=O)(=O)NC(C)(CO)CO)s4)c3n2)ccc1C(F)(F)F` yielded a melting point of 220 °C.

Take `CN(C(=O)CBr)c1cccc(-c2ccnc3c(C(=O)c4ccccc4)cnn23)c1`: the melting point lay within 175 to 177 °C.

`O=C1c2ccccc2CN1CC1CCN(CCc2c[nH]c3ccccc23)CC1` came in with a melting point of 225 to 230 °C.

On to `O=Cc1c(-c2ccccc2Br)ccc2c1OCO2`, for which the melting point lay in the range of 89 to 91 °C.

For `Brc1cnc2c(c1)ncn2-c1cccc(-c2cccnc2)c1`, the melting point was in the range of 212 to 213 °C.

Take `Cc1cccc(-c2nc3ccc(OCCN4CCN(C)CC4)cc3n2Cc2ccccc2)c1`: the melting point amounted to 91 °C.

`O=C1NC(=O)C(=Cc2ccc(OCCN3C(=O)SC(c4ccccc4)C3=O)cc2)S1` (stereo not drawn) gave a melting point of 120 °C.

With `O=C(CCCCCCCCc1ccc(Cl)cc1)NO`, the melting point lay within 48 to 50 °C.

The compound `CCOP(=O)(OCC)C(CC(NC(=O)OC(C)(C)C)C(=O)c1ccccc1)P(=O)(OCC)OCC` (stereo not drawn) yielded a melting point of 56 to 57 °C.

Regarding `OCc1nn(-c2ccc(Cl)cc2)c2c1CCC2`, the melting point lay in the range of 149 to 150 °C.

`O=C(Cl)c1cc(Cl)cc2c1OCCO2`: the melting point was determined as 140 °C.

With `O=C(Nc1ccc(-n2nc(C(F)(F)F)cc2C(F)(F)F)cc1)Nc1cccc([N+](=O)[O-])c1`, the melting point fell in the range of 203 to 204 °C.

For `CCNc1cc(Cl)nc(C#N)c1[N+](=O)[O-]`, the melting point is 120 °C.

Compound `CS(=O)(=O)OCCN(CCOS(C)(=O)=O)c1ccc([N+](=O)[O-])c(C(=O)O)c1[N+](=O)[O-]` gave a melting point of 200 to 210 °C.

For the compound `C=CCSc1ccc2[nH]c(NC(=O)OC)nc2c1`, the melting point lay in the range of 197 to 198 °C.

The compound `CN1CCN(c2cc3ccccc3c(=O)[nH]2)CC1CO` (stereo not drawn) registered a melting point of 173 to 174 °C.

On to `Cc1oc(-c2ccc(S(C)(=O)=O)cc2)c(Oc2ccc(F)cc2)c(=O)c1Cl`, for which the melting point was 279 °C.

`CC1(CO)CCC2(CC1)OCCO2` yielded a melting point of 42 to 43 °C.

`COc1cccc(CCN2C(=O)c3c(C)c(C)c(C)c(C)c3C2(O)c2ccc(F)cc2)c1` (stereo not drawn) registered a melting point of 181 °C.

`COc1ccc(-c2cc(C(=O)Nc3ccc(CCN(C)Cc4ccc(OC)c(OC)c4)cc3)c3ccccc3n2)cc1`: the melting point is 114 °C.

Take `ClCc1ncn2c1CN=C(c1ccccc1Cl)c1cc(Cl)ccc1-2`: the melting point worked out at 165 °C.

As to `COc1cc(OC)nc(-c2c(C)[nH]c3ccc(Cl)cc23)n1`, the melting point lay in the range of 179 to 181 °C.

As to `CC(=O)C1=C(C)CC2C3CCC4CC5OC5CC4(C)C3C(=O)CC12C` (stereo not drawn), the melting point fell in the range of 155 to 157 °C.

On to `O=c1nc(-c2c(F)cccc2F)oc(=O)n1-c1cc(Cl)c(Oc2ncc(OC(F)F)cc2Cl)c(Cl)c1`, for which the melting point is 154 to 156 °C.

`CC(=O)C=CSc1ncc(Cl)cn1` displayed a melting point of 89 °C.

On to `O=S(=O)(C=CC(=Nc1ccccc1)Oc1ccccc1)c1ccccc1`, for which the melting point was 110 to 116 °C.

Compound `OCC1(CO)COC(c2nc(-c3ccccc3)c(-c3ccccc3)n2Cc2ccccc2)OC1` gave a melting point of 186 to 188 °C.

For the compound `CCCCCCC(C(=O)OCC)n1c(C(F)(F)C(F)(F)F)nc2cc(-c3ccccc3-c3nn[nH]n3)ccc21` (stereo not drawn), the melting point lay within 70 to 72 °C.

On to `O=C(Nc1ccccc1)N1CCc2cc(S(=O)(=O)N3CC(c4ccccc4)NC3=O)ccc21` (stereo not drawn), for which the melting point fell in the range of 247 to 248 °C.

`CS(=O)(=O)c1ccc2c(c1)S(=O)(=O)NCN2CCF` gave a melting point of 193 to 195 °C.

Consider `CNC(=O)n1cnc(C(=O)NC(C)(C)C)c1N`, for which the melting point lay in the range of 145 to 147 °C.

`NC(=NC(=O)Cn1c(Cl)ccc1Cl)NC(=O)c1ccc(Cl)cc1`: the melting point lay in the range of 198 to 200 °C.

`COc1ccc(Oc2ccccc2)c(NS(=O)(=O)C(F)(F)F)c1` yielded a melting point of 57 to 58 °C.

With `Nc1ccccc1-c1[nH]ncc1[N+](=O)[O-]`, the melting point is 175 to 176 °C.

On to `COc1cccc(NC(=O)NC2N=C(c3ccccc3F)c3cccc(C)c3N(CC(=O)N3CC4CCC(CC4)C3)C2=O)c1` (stereo not drawn), for which the melting point is 241 to 243 °C.

Compound `CC(C)(C)OC(=O)N1CCC(O)(c2ccc(Oc3ccc(NC(=O)c4ccc(Cl)c(Cl)c4)cc3)cc2)CC1` yielded a melting point of 208 to 209 °C.

For the compound `CCOCc1nc2c(N)nc(C)c(C)c2n1CC1(O)CCCCC1`, the melting point lay in the range of 194 to 195 °C.

`Brc1nccc2ncccc12` registered a melting point of 112 to 113 °C.

`c1ccc2c(c1)CCOC2` registered a melting point of 89 to 90 °C.
